# Assays:
# [1] = test system: patients with cystic fibrosis; conditions: single inhalation, CF patients; cited from earlier work
# [2] = test system: mucoid CF clinical isolates of P. aeruginosa; conditions: elevated CO2 concentrations; titration with bicarbonate
compound,measurement,setting,value
N=C(N)NCCC[C@H](N)C(=O)O [L-arginine],Exhaled NO,[1],significantly increased
same,FEV1,[1],sustained improvement
O=C(O)O [bicarbonate],Alginate expression,[2],suppressed
reduced glutathione [GSH],"Ability of P. aeruginosa to utilize nitrate, nitrite or nitric oxide for respiration to grow",P. aeruginosa; low oxygen conditions such as within biofilm,"limits the ability of P. aeruginosa to utilize nitrate, nitrite or nitric oxide for respiration"
same,Aerobic growth of P. aeruginosa,P. aeruginosa; nitrite and nitric oxide in the presence of GSH,inhibit aerobic growth of P. aeruginosa
